Experimental data reported in patent US20120258974A1, “USE OF A2B ADENOSINE RECEPTOR ANTAGONISTS FOR TREATING HEART FAILURE AND ARRHYTHMIA IN POST-MYOCARDIAL INFARCTION PATIENTS” (GILEAD SCIENCES, INC., priority 2011, published 2012).

Legend:
[1] = test system: rats with MI (25 minutes coronary occlusion followed by reperfusion); test: Plasma biomarkers at 5 week post-MI, rat post-MI model (Example 6); assay type: in vivo
Protocol: (§1) The effects of Compound A in a rat model of post-MI remodeling and VT were determined. MI was caused by 25 minutes occlusion at the left anterior descending coronary ligation followed by reperfusion. One week later, rats were administered either vehicle or Compound A (100 mg/kg) once daily by oral gavage. Serial echocardiograms (ECHOs) to measure LV ejection fraction (LVEF), stroke volume and LV end systolic volume (LVESV) were obtained at baseline, 1 week and 5 week post-MI. Electrophysiological studies, optical mapping, histology and biomarker analysis were conducted at 5 week post-MI.

[2] = test system: rats with MI (25 minutes coronary occlusion followed by reperfusion); test: Conduction velocities in LV myocardium, optical mapping, rat post-MI model (Example 6); assay type: in vivo; settings: 5 week post-MI
Protocol: as §1
Abnormal electrical impulse conduction in the infarct border zone (IBZ) is important in the pathogenesis of post-MI arrhythmias. As shown in the conduction vector maps (FIG. 13A-B), the vehicle control group has much slower conduction velocity than the Compound A treated animals. To quantify the impact of Compound A on conduction properties, conduction velocities (CVs) were measured for infarct, border, and normal zones of LV myocardium. CVs in normal zones were fastest among all zones and were similar between placebo and Compound A groups (FIG. 14A). […] Finally, CVs in IBZs of both groups were in between those of non-infarct and infarct zones.

[3] = test system: CD45 expression (leukocytes) in the heart; test: Inflammatory infiltrate: CD45 expression in the heart by Western blot (Example 4); assay type: in vivo, mouse; settings: 72 hours after AMI; 4 mg/kg i.p. twice daily
Protocol: Adult out-bred male CD1 mice (8-12 weeks of age) were supplied by Harlan Sprague Dawley (Indianapolis, Ind.). The experiments were conducted under the guidelines of laboratory animals for biomedical research published by National Institutes of Health (No. 85-23, revised 1996). The study protocol was approved by the Virginia Commonwealth University Institutional Animal Care and Use Committee. Experimental AMI was induced by permanent coronary artery ligation in order to induce a large non-reperfused infarct involving approximately 30% of the left ventricle and leading to an ischemic dilated cardiomyopathy (Mezzaroma et al. Proc Natl Acad Sci 2011—in press and Abbate et al. Circulation 2008; 117:2670-83). Briefly, mice were orotracheally intubated under anesthesia (pentobarbital 50 to 70 mg/kg), placed in the right lateral decubitus position, then subjected to a left thoracotomy, pericardiectomy, and ligation of the proximal left coronary artery. The chest was closed and the animals were allowed to recover. […]
In order to quantify the inflammatory infiltrate in the heart during AMI, this example measured CD45 expression (a marker for leukocytes) in the heart using Western Blot. […] The band intensity was determined by densitometric analysis using the Scion Image software and the results were expressed as percentage increase in intensity compared to the control sham samples.

[4] = test system: CD1 mice with experimental AMI (permanent coronary artery ligation); test: Circulating levels of cytokines and soluble adhesion molecules at day 28 (Luminex, Example 4); assay type: in vivo, mouse; settings: day 28 after surgery, vs vehicle
Protocol: Adult out-bred male CD1 mice (8-12 weeks of age) were supplied by Harlan Sprague Dawley (Indianapolis, Ind.). The experiments were conducted under the guidelines of laboratory animals for biomedical research published by National Institutes of Health (No. 85-23, revised 1996). The study protocol was approved by the Virginia Commonwealth University Institutional Animal Care and Use Committee. Experimental AMI was induced by permanent coronary artery ligation in order to induce a large non-reperfused infarct involving approximately 30% of the left ventricle and leading to an ischemic dilated cardiomyopathy (Mezzaroma et al. Proc Natl Acad Sci 2011—in press and Abbate et al. Circulation 2008; 117:2670-83). Briefly, mice were orotracheally intubated under anesthesia (pentobarbital 50 to 70 mg/kg), placed in the right lateral decubitus position, then subjected to a left thoracotomy, pericardiectomy, and ligation of the proximal left coronary artery. The chest was closed and the animals were allowed to recover. The mice surviving surgery were randomly assigned to the different groups of treatment (N=6-15 per group). Sham operations were performed wherein animals underwent the same surgical procedure without coronary artery ligation (N=4-8 per group).
The A2B AdoR antagonist, Compound A, was obtained from Gilead Sciences, Foster City, Calif. Mice were randomly assigned to treatment with Compound A (4 mg/kg) or matching dose of vehicle administered intraperitoneally (final volume 0.13 mL) every 12 hours for 14 days starting immediately after coronary artery ligation surgery. An additional group of mice received a lower dose of Compound A (2 mg/kg) to explore a dose-response relationship. Two additional groups of mice received Compound A (4 mg/kg) starting 1 hour after surgery to simulate a clinical scenario of treatment delay. […] To simulate a clinically relevant scenario in which drug treatment may occur with some delay after AMI, this example compared treatment with Compound A without delay with groups in which the A2B AdoR antagonist was given with 1 hour of delay.
The plasma concentrations of IL-1β and […], Tumor Necrosis Factor-α (TNF-α) and soluble adhesion molecules (E-selectin, Intercellular adhesion molecule-1 [ICAM-1] and vascular cellular adhesion molecule [VCAM]), that are induced by IL-1β, were determined at day 28 after surgery using Luminex kits obtained from Millipore (Billerica, Mass.) according to the manufacturer's instructions. A blood sample was obtained via a direct cardiac puncture immediately prior to killing the animals.

[5] = test system: ob/ob model mice; test: Inflammatory biomarker expression in ob/ob mice after 28-day dosing (Example 5); assay type: in vivo, mouse
Protocol: The A2B antagonist, Compound A (3 mg/kg/day or 10 mg/kg/day), was given to 6 weeks old ob/ob model mice for 28 days. At the end of the 28-day dosing, expression of a number of inflammatory biomarkers, MCP-1, IL-1b, IL-2 and IL-6, were measured in these mice as compared to control (vehicle).

[6] = 3 mg/kg/day or 10 mg/kg/day for 28 days, vs vehicle

CCCn1c(=O)c2[nH]c(-c3cnn(Cc4cccc(C(F)(F)F)c4)c3)nc2n(CC)c1=O [Compound A, 3-ethyl-1-propyl-8-(1-(3-(trifluoromethyl)benzyl)-1H-pyrazol-4-yl)-1H-purine-2,6(3H,7H)-dione] was tested. Which “plasma IL-6” value [1] did it give?
The value was “significantly reduced”.

What about the “plasma PAI-1” value [1] of the same molecule?
Its value is “significantly reduced”.

And the “increase of plasma BNP” value ([1]; P=0.16)?
Its value is “trend”.

What about the “conduction velocities in normal zones” value ([2]; vs placebo) of the same molecule?
The value was “similar”.

What about the “conduction velocities in IBZs” value ([2]; vs placebo control) of the same molecule?
The value was “significantly faster”.

What about the “conduction velocities in infarct zones” value ([2]; vs placebo control) of the same molecule?
The value was “significantly improved”.

What about the “intensity of the leukocyte (CD45+) infiltrate, CD45 expression at Western blot” value [3] of the same molecule?
The value was “significantly reduced”.

What about the E-selectin plasma level [4] of the same molecule?
The E-selectin plasma level was “significantly reduced”.

What about the ICAM-1 plasma level [4] of the same molecule?
Its ICAM-1 plasma level is “significantly reduced”.

And the IL-6 plasma level [4]?
Its IL-6 plasma level is “significantly reduced”.

What about the TNF-α plasma level [4] of the same molecule?
The TNF-α plasma level was “significantly reduced”.

What about the VCAM plasma level [4] of the same molecule?
Its VCAM plasma level is “significantly reduced”.

What about the “expression of IL-1b” value [5, 6] of the same molecule?
Its value is “went down”.

And the “expression of IL-2” value [5, 6]?
Its value is “went down”.

And the “expression of IL-6” value [5, 6]?
The value was “went down”.

And the “expression of MCP-1” value [5, 6]?
The value was “went down”.

And the “reduction of IL-1b expression” value ([5]; 10 mg/kg/day group, 28 days)?
Its value is “statistically significant”.

What about the “reduction of MCP-1 expression” value ([5]; 10 mg/kg/day group, 28 days) of the same molecule?
Its value is “statistically significant”.
